# Test results published in patent US20230346716A1, “TREATMENT OF SKIN DISORDERS WITH TOPICAL TAPINAROF COMPOSITIONS” (Sol-Gel Technologies Ltd., priority 2019, published 2023).
# Assays:
# [1] = system: experimentally induced psoriasis in normal human skin grafted onto beige-SCID mice; assay: Study 1: histology of human skin xenograft psoriasis model in beige-SCID mice; format: in vivo; details: for Mean Epidermal Thickness: topical 14 days, grafts excised Day 56, mean ± SD
# Excerpt: (§1) The objective of this study was to determine the efficacy of tapinarof composition as described in Example 8 compared to the vehicle and Dexamethasone as shown below. The evaluation was based on histology analysis following application of the respective test formulations.
# (§2) In this model, a psoriasis phenotype is induced in normal skin grafted onto beige-severe combined immunodeficient mice by intradermal injection of natural killer/T-cells derived from psoriatic patients (Gilhar et al., Psoriasis is mediated by a cutaneous defect triggered by activated immunocytes: induction of psoriasis by cells with natural killer receptors, J. Invest. Dermatol. 2002 August; 119(2):384-91).
# (§3) In order to address the aim of the experiment, the psoriatic humanized mice were established Additionally, 10 psoriatic patients were recruited (six males and four females), ranging from 21 to 66 years (mean age 45 years). All patients had classic plaque psoriasis. Normal skin from one healthy volunteer was obtained for grafting.
# (§4) The efficacy study has been conducted on female mice. The total duration of the experiment was 8 weeks, upon receiving of the human skin. Normal skin from healthy volunteers were obtained for grafting. Healthy human abdominal skin pieces with a width of 0.4 mm and surface area of 1.5×1.5 cm were provided. The skin sample was preserved in isotonic saline solution and transplanted within 6-12 hours after skin donation. In addition, blood samples were collected from psoriatic patients having classic plaque psoriasis and not undergoing any treatment. 20 mL blood samples were taken from both males and females psoriatic patients (from psoriatic patients having classic plaque psoriasis and not undergoing any treatment), and peripheral blood mononuclear cells (PBMC) were separated immediately after blood withdrawal.
# (§5) Mice: Beige-severe combined immunodeficient mice C.B-17/IcrHsdscid-bg (beige-SCID) mice (weight ˜25 g) were included in this study. Mice were monitored twice a week for vital signs such as weight, food intake, coat, eyes, anal genital areas, discharge/soiling, behavior and criteria related to skin transplantation. Normal healthy human donor skin were transplanted onto the beige-SCID mice as previously described (See Keren A. et al., Novel nanosome delivery system combined with siRNA targeting the antimicrobial gene DFB4: a new approach for psoriasis management? ExpDermatol. 2014; 23:464-465; Bracke S. et a/., Targeted silencing of DEFB4 in a bioengineered skin-humanized mouse model for psoriasis: development of siRNA SECosome-based novel therapies. ExpDermatol. 2014; 23:199-201; Zaretsky M. et al., Directed evolution of a soluble human IL-17A receptor for the inhibition of psoriasis plaque formation in a mouse model. Chem Biol. 2013 21; 20:202-2; Gilhar A. et al., The beneficial effect of blocking Kv1.3 in the psoriasiform SCID mouse model. J Invest Dermatol. 2011; 131:118 124; Keren A. et al., Innate lymphoid cells 3 induce psoriasis in xenotransplanted healthy human skin. J Allergy Clin Immunol. 2018; 142:305-308.e6).
# (§6) British Journal of Pharmacology 2010; 159:842-855).
# (§7) Four weeks following the engraftment, each mouse was injected (intradermally) with 1×10^7 IL-2 enriched allogeneic PBMC's from psoriatic patients (1×10^7 cells injected/mouse). Cells from different psoriasis patients were equally distributed between treatment groups. Each patient was represented in each treatment group.
# (§8) Fourteen days following cells injections, the mice were divided into treatment groups (Table 1, see below) and treated according to the timeline indicated below (see Scheme 1). Each transplant was equally topically treated (50 μg) by using a sterile spatula.
# (§9) Dexamethasone (D2915, Sigma): was freshly prepared for each administration by dilution in saline to final concentration (50 mg/ml). […]
# [2] = system: experimentally induced psoriasis in normal human skin grafted onto beige-SCID mice; assay: Study 2: histology of human skin xenograft psoriasis model in beige-SCID mice; format: in vivo; parameters: Mean Epidermal Thickness: unit not given here
# Excerpt: as §1, §2, §3, §4, §5, §6, §7, §8, §9
# [3] = system: HBD2, Psoriasin (S100A7), CD4, CD8, IL-17, IL-22; assay: Study 2: immunohistochemical markers for psoriasis in human xenotransplants; format: in vivo, beige-SCID mice; details: immunohistochemistry of xenotransplants
# [4] = as a single drug, psoriasis treatment; placebo 20.2%; cited from earlier work
# [5] = histological evaluation of human skin grafts
compound,measurement,setting,value
C[C@@H]1C[C@H]2[C@@H]3CCC4=CC(=O)C=C[C@]4(C)[C@@]3(F)[C@@H](O)C[C@]2(C)[C@@]1(O)C(=O)CO [Dexamethasone],Partial Recovery (percent of grafts),[1],(10%)
same,Psoriatic Features (percent of grafts),[1],(0%)
same,Baker score: Agranulosis - hypogranulosis,[1]; average ± SD,0.1 ± 0.3
same,"Baker score: Blood vessels (tortuosity, elongation)",[1]; average ± SD,0.05 ± 0.1
same,Baker score: Epidermal thickening (acanthosis),[1]; average ± SD,0.05 ± 0.1
same,Baker score: Hyperkeratosis,[1]; average ± SD,0.05 ± 0.1
same,Baker score: Mononuclear cells infiltrate in the papillary dermis,[1]; average ± SD,0.2 ± 0.6
same,Baker score: Munro micro abscess,[1]; average ± SD,0 ± 0
same,Baker score: Parakeratosis,[1]; average ± SD,0.1 ± 0.3
same,Baker score: Regular/abnormal elongation of rete ridges,[1]; average ± SD,0.1 ± 0.4
same,Baker score: Suprapapillary epidermal thinning,[1]; average ± SD,0.05 ± 0.1
same,"Histological Scoring (Baker system), Total Score",[1]; average ± SD,0.7 ± 1.9
same,Complete Recovery (grafts/total grafts),[1]; [5],9/10
same,Partial Recovery (grafts/total grafts),[1]; [5],1/10
same,Psoriatic Features (grafts/total grafts),[1]; [5],0/10
same,Mean Epidermal Thickness,[1],254±59 μm
same,Mean Epidermal Thickness,[1]; listed as Dexamethasone 2 mg,254 ± 59 μm
same,Proliferation index (%),[2],6 ± 2%
same,Baker score: Agranulosis - hypogranulosis,[2]; average ± SD,0.1 ± 0.3
same,"Baker score: Blood vessels (tortuosity, elongation)",[2]; average ± SD,0.05 ± 0.1
same,Baker score: Epidermal thickening (acanthosis),[2]; average ± SD,0.05 ± 0.1
same,Baker score: Hyperkeratosis,[2]; average ± SD,0 ± 0
same,Baker score: Mononuclear cells infiltrate in the papillary dermis,[2]; average ± SD,0 ± 0
same,Baker score: Munro micro abscess,[2]; average ± SD,0 ± 0
same,Baker score: Parakeratosis,[2]; average ± SD,0 ± 0
same,Baker score: Regular/abnormal elongation of rete ridges,[2]; average ± SD,0 ± 0
same,Baker score: Suprapapillary epidermal thinning,[2]; average ± SD,0.05 ± 0.1
same,"Histological Scoring (Baker system), Total Score",[2]; average ± SD,0.25 ± 0.8
same,Complete Recovery (grafts/total grafts),[2]; [5],10/10
same,Partial Recovery (grafts/total grafts),[2]; [5],0/10
same,Psoriatic Features (grafts/total grafts),[2]; [5],0/10
same,Mean Epidermal Thickness,[2]; mean ± SD,193 ± 71
same,CD4,[3],0.5 ± 0.8 Cells per 0.66 mm^2
same,CD8,[3],0.6 ± 0.6 Cells per 0.66 mm^2
same,"HBD2 (Integrated intensity, %)",[3],5.8 ± 0.9%
same,IL-17,[3],0.6 ± 0.9^ Cells per 0.66 mm^2
same,IL-22,[3],0.4 ± 0.8 Cells per 0.66 mm^2
same,"Psoriasin (S100A7) (Integrated intensity, %)",[3],6.6 ± 2.1%
"CC(C)c1c(O)cc(/C=C/c2ccccc2)cc1O [Tapinarof, 3,5-dihydroxy-4-isopropyl-trans-stilbene]",adverse effects,[4],44.5%
C=C1/C(=C\C=C2/CCC[C@]3(C)[C@@H]([C@H](C)/C=C/[C@@H](O)C4CC4)CC[C@@H]23)C[C@@H](O)C[C@@H]1O [calcipotriene],adverse effects,[4],19.5%
